# Reference: patent US20200113852A1, “METHODS OF PATIENT SELECTION AND TREATING TRXR- OR PRDX-OVEREXPRESSED CANCERS” (TRIACT THERAPEUTICS, INC., priority 2017, published 2020)
# Legend:
# HCT116 cells = assay: Apoptosis and necrosis assay (DiOC2(3)/DAPI flow cytometry); type: cell-based, human
# Protocol: (§1) Cells were seeded in 6-well tissue culture plates (2.5×10^5 cells/well). MDA-MB-453 and HCT116 cells were first pre-treated or not for 48 h with 1 mM BSO. […] Cell-conditioned culture media, that may contain detached cells, were then collected and attached cells were trypsinized. Cells were combined with their corresponding conditioned media and collected by centrifugation at 1500 rpm for 10 min at 4° C. […] Cell- and DNA-associated fluorescence signals were quantified using a FACS-Aria (BD Biosciences) and data were analyzed with the […] software (BD Biosciences).
# MDA-MB-453 cells = assay: as above; type: cell-based, human; details: MDA-MB-453 without GSH depletion
# Protocol: as §1
# [1] = Phase I clinical trial GBM, safety, DLT and MTD
# From the text: It was a single arm, multi dose, dose escalating trial in newly diagnosed GBM patients. The total number of patients was 43, with about 5 patients per cohort. Patients who tolerated radiation (XRT) and temozolomide (TMZ) were recruited. Inclusion criteria included completion of XRT and TMZ without grade 3 or 4 toxicity and labs within acceptable range within 6 weeks of completing XRT. The end points included safety, maximum tolerated dose (MTD), and signal of activity.
# Using modified continual reassessment method, MTD was defined for metronomic and standard dose TMZ.
structure (smiles),measurement,setting,value
"NC(=O)c1ccc(I)c([N+](=O)[O-])c1 [Iniparib, 4-iodo-3-nitrobenzamide]",treatment time from which apoptotic phenotype clearly detected,"HCT116 cells; GSH-depleted HCT116, 100 μM",6 h
same,cell death phenotype,"HCT116 cells; GSH-depleted HCT116, 9 h, 100 μM",induced both necrotic and late apoptotic related phenotypes
same,apoptotic phenotype induction,MDA-MB-453 cells,much slower than in HCT116 cells
same,Phase 2 dose defined,[1]; IV 2×/wk with metronomic TMZ,8.6 mg/kg
same,Phase 2 dose defined,[1]; IV 2×/wk with standard TMZ,8 mg/kg
